A short description of data set [1]: Pharmacokinetic analysis in Alzheimer's disease patients. The format is in vivo, human. As to the method: Pharmacokinetic analysis was performed on Week 4 (maintenance analysis) and on Week 9 (termination analysis). At maintenance analysis (M), samples were collected pre-dose and at 0.25, 0.5, 1, 2, and 3 hours post-dose. At termination analysis (T), samples were collected pre-dose and at 0.25, 0.5, 1, 2, 3, 4, 6, and […].
The concentration measurements are expressed in nmol/ml and the t1/2 is expressed in terms of hours.

Data set [2] relates to 3,4-dihydroxyphenylglycol (DHPG) in plasma. The data set is described as follows: Decrease of DHPG plasma concentration in patients, HPLC with electrochemical detector. The format is in vivo, human. As to the method: Decrease of 3,4-dihydroxyphenylglycol (“DHPG”) in plasma is indicative of monoamine oxidase inhibition, especially in the brain. DHPG plasma concentrations were measured in 6 of the aforementioned patients at baseline and at termination analysis, using HPLC equipped with an electrochemical detector.
The decrease in DHPG concentration in the six patients was determined. The average decrease in DHPG concentration was determined to be 57% with a standard deviation of 29.

A further data set relates to Cholinesterase. The data set is described as follows: Cholinesterase inhibition at pre-dose in patients. Format: in vivo, human. Conditions: pre-dose administration, at maintenance and at termination analyses. From the text:
Cholinesterase inhibition at pre-dose administration both at maintenance and at termination analyses was also evident.

Data set [3] is described as follows: Wet granulation experiments: compatibility with water and ethanol. The format is physicochemical. The method, then:
The manufacturing process was changed from the dry granulation process to a wet-granulation process as a result of the flow problem with the active ingredient. Water and ethanol are the two most common agents used in wet granulation. Granulation experiments were first performed with water. […] Therefore, granulation experiments based on the CC formulation were performed with isopropanol.

A short description of data set [4]: Bulk and tapped density of ladostigil tartrate crystals. Format: physicochemical. Conditions: crystals from the alternative isopropanol process. From the text:
This alternative process, which can be performed without the seeding step, is better suited for use in a pilot scale and a production scale than a method that follows PCT Application Publication No. WO98/27055.

“And” between values parts separate entries of the source, which are not always exact repeats. Equal values may be shown once. Read-outs that look alike come from different tables or passages of the source.

In data set [1] (half life at termination analysis Week 9), “R(+)-6-(N-methyl, N-ethyl-carbamoyloxy)-N′-propargyl-1-aminoindan [Ladostigil Tartrate]” displayed a t1/2 of 1.08 h. Moreover, the “AUC ladostigil (M)” value in data set [1] (individual patients 1-8, maintenance analysis Week 4, 100 mg twice daily, tablets of Table 9) was 314 ng·h/mL and 589 ng·h/mL and 1005 ng·h/mL and 927 ng·h/mL and 436 ng·h/mL and 551 ng·h/mL and 52 ng·h/mL and 500 ng·h/mL. The “AUC ladostigil (T)” value in data set [1] (individual patients 1-8, termination analysis Week 9, 100 mg twice daily, tablets of Table 9) is 246 ng·h/mL and 2305 ng·h/mL and 1449 ng·h/mL and 482 ng·h/mL and 398 ng·h/mL and 901 ng·h/mL and 118 ng·h/mL and 350 ng·h/mL. In addition, the Cmax in data set [1] (individual patients 1-8, termination analysis Week 9, 100 mg twice daily, read-out: Cmax ladostigil (T)) was 700 nM and 3800 nM and 3900 nM and 1600 nM and 1000 nM and 2500 nM and 400 nM and 1300 nM; in data set [1] (mean after dosing, maintenance analysis Week 4, read-out: Cmax) it was 2020 nM; in data set [1] (mean after dosing, termination analysis Week 9, read-out: Cmax (T)), 1880 nM. The “Cmin (M)” value in data set [1] (mean concentration at pre-dose (12 hours after previous dose), maintenance analysis Week 4) is 1.64e-08 M. Moreover, the “Cmin (T)” value in data set [1] (mean concentration at pre-dose (12 hours after previous dose), termination analysis Week 9) was 10.9 nM. In data set [2] (individual patients, termination analysis Week 9 versus baseline), the “DHPG (T) (%)” value is −63% and −86% and >−79% and −73% and −30% and −13%. Besides, the “average decrease in DHPG concentration” value in data set [2] (six patients, termination analysis, standard deviation of 29) turned out to be 57%. For the same substance, the “Cholinesterase inhibition” value in the data set on Cholinesterase is on record as “evident”. For the same substance, the Compatibility with ethanol result in data set [3] (wet granulation agent) is given as “incompatible with ethanol”. Moreover, the “Stability in the presence of water” value in data set [3] (wet granulation with water) is “unstable in the presence of water”. In data set [4], this substance registered a bulk density of 0.22 to 0.29 g/mL. The substance also came in with a tapped density in data set [4] of 0.38 to 0.54 g/mL.

For the origin of these results see US8022104B2 (priority 2005, dated 2011).
